Laboratory results published in ChEMBL document CHEMBL4627388, “Structural Specificity of Flavonoids in the Inhibition of Human Fructose 1,6-Bisphosphatase” (J Nat Prod, 2020).
pIC50: −log10 of the molar value.

These compounds were tested against T1, Fructose-1,6-bisphosphatase 1 (Homo sapiens) (UniProt P09467) (assay: Inhibition of human liver FBP1 at 200 uM incubated for 5 mins by fluorescence method relative to control).
T1 sequence (whole entry): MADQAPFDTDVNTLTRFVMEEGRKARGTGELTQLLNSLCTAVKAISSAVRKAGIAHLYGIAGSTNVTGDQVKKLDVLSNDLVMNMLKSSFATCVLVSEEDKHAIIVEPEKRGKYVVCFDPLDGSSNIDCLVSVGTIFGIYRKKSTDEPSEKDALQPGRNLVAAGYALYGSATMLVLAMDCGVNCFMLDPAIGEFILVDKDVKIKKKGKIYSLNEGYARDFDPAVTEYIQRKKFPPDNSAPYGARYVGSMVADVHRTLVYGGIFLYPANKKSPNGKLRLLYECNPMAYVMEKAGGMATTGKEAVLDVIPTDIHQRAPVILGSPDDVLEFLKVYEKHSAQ

Which inhibition does the source give for `O=C(O)[C@H]1O[C@@H](Oc2cc3oc(-c4ccccc4)cc(=O)c3c(O)c2O)[C@H](O)[C@@H](O)[C@@H]1O` here?
Its inhibition is < 20%.

How did the inhibition turn out when `O=c1cc(-c2ccccc2)oc2cc(O)cc(O)c12` was run?
Its inhibition is < 20%.

Which inhibition does the source give for `O=c1c(O)c(-c2ccc(O)c(O)c2)oc2cc(O)c(O)c(O)c12` here?
Its inhibition is 37%.

`O=c1c(O)c(-c2cccc(O)c2)oc2cc(O)cc(O)c12` was tested. Which inhibition did it give?
The inhibition was < 20%.

How did the inhibition turn out when `O=c1c(O)c(-c2ccccc2)oc2cc(O)cc(O)c12` was run?
Its inhibition is < 20%.

For `Oc1ccc(-c2[o+]c3c(O)c(O)cc(O)c3cc2O)cc1O`, which inhibition is on record?
The inhibition was 46%.

For `O=c1c(Cl)c(-c2ccc(O)c(O)c2)oc2c(Cl)c(O)cc(O)c12`, which inhibition is on record?
The inhibition was < 20%.

For `O=c1c(O)c(-c2ccc(O)cc2)oc2cc(O)cc(O)c12`, which inhibition is on record?
The inhibition was < 20%.

For `O=c1c(Cl)c(-c2ccc(O)c(O)c2)oc2c(Cl)c(O)c(Cl)c(O)c12`, which inhibition is on record?
Its inhibition is < 20%.

With `O=c1cc(-c2ccccc2)oc2c(O)c(O)cc(O)c12` as the compound, how does the inhibition read?
The inhibition was < 20%.

`O=c1cc(-c2ccc(O)cc2)oc2cccc(O)c12` was tested. Which inhibition did it give?
The inhibition was < 20%.

Which inhibition does the source give for `COc1cc2oc(-c3ccccc3)cc(=O)c2c(O)c1O` here?
Its inhibition is 46%.

Which inhibition does the source give for `COc1cccc(-c2oc3cc(OC)ccc3c(=O)c2O)c1` here?
Its inhibition is < 20%.

For `COc1ccc(-c2oc3c(O)c(O)ccc3c(=O)c2O)cc1OC`, which inhibition is on record?
The inhibition was 33%.

For `O=c1c(Cl)c(-c2ccc(O)c(O)c2)oc2cc(O)cc(O)c12`, which inhibition is on record?
The inhibition was < 20%.

`COc1ccc2c(=O)c(O)c(-c3ccc(O)c(O)c3)oc2c1OC` was tested. Which inhibition did it give?
Its inhibition is < 20%.

`O=c1cc(-c2ccc(O)c(O)c2)oc2cc(O)c(Cl)c(O)c12` was tested. Which inhibition did it give?
The inhibition was < 20%.

`C[C@@H]1O[C@@H](OC[C@H]2O[C@@H](Oc3c(-c4ccc(O)c(O)c4)oc4cc(O)cc(O)c4c3=O)[C@H](O)[C@@H](O)[C@@H]2O)[C@H](O)[C@H](O)[C@H]1O` was tested. Which inhibition did it give?
Its inhibition is < 20%.

Which inhibition does the source give for `COc1ccc(-c2oc3cc(OC)ccc3c(=O)c2O)cc1` here?
Its inhibition is < 20%.

With `O=c1cc(-c2cccc(O)c2)oc2cc(O)ccc12` as the compound, how does the inhibition read?
Its inhibition is < 20%.

With `COc1ccc(-c2oc3ccccc3c(=O)c2O)cc1OC` as the compound, how does the inhibition read?
Its inhibition is < 20%.

Which inhibition does the source give for `O=c1c(O)c(-c2ccc(O)c(O)c2)oc2cc(O)cc(O)c12` here?
The inhibition was < 20%.

With `COc1cc2oc(-c3ccccc3)cc(=O)c2c(OC)c1OC` as the compound, how does the inhibition read?
Its inhibition is < 20%.

How did the inhibition turn out when `O=C1C[C@@H](c2ccc(O)cc2)Oc2cc(O)cc(O)c21` was run?
The inhibition was < 20%.

Which inhibition does the source give for `O=C1c2c(O)cc(O)cc2O[C@H](c2ccc(O)c(O)c2)[C@H]1O` here?
The inhibition was < 20%.

`COc1ccc(-c2cc(=O)c3c(O)cc(O)cc3o2)cc1OC` was tested. Which inhibition did it give?
The inhibition was < 20%.

With `O=C1C[C@@H](c2ccc(O)c(O)c2)Oc2cc(O)cc(O)c21` as the compound, how does the inhibition read?
The inhibition was < 20%.

With `O=c1cc(-c2ccccc2)oc2cc(O)ccc12` as the compound, how does the inhibition read?
The inhibition was < 20%.

`O=c1cc(-c2cccc(O)c2)oc2cccc(O)c12` was tested. Which inhibition did it give?
The inhibition was < 20%.

Which inhibition does the source give for `COc1ccc2c(=O)c(O)c(-c3ccc(OCc4ccccc4)c(OCc4ccccc4)c3)oc2c1OC` here?
Its inhibition is < 20%.

Which inhibition does the source give for `O=c1cc(-c2ccccc2)oc2cccc(O)c12` here?
Its inhibition is < 20%.

With `O=c1c(O)c(-c2cccc(O)c2)oc2cc(O)ccc12` as the compound, how does the inhibition read?
Its inhibition is < 20%.

With `O=c1cc(-c2ccc(O)cc2)oc2cc(O)cc(O)c12` as the compound, how does the inhibition read?
Its inhibition is < 20%.

With `O=c1cc(-c2ccc(O)c(O)c2)oc2ccccc12` as the compound, how does the inhibition read?
The inhibition was 25%.

How did the inhibition turn out when `O=c1c(O)c(-c2cc(O)c(O)c(O)c2)oc2cc(O)cc(O)c12` was run?
The inhibition was < 20%.

How did the inhibition turn out when `O=c1c(O)c(-c2ccc(O)c(O)c2)oc2c(O)c(O)ccc12` was run?
Its inhibition is < 20%.

For `O=c1c(O)c(-c2ccc(O)cc2)oc2cc(O)ccc12`, which inhibition is on record?
The inhibition was < 20%.

With `O=c1cc(-c2cccc(O)c2)oc2ccccc12` as the compound, how does the inhibition read?
Its inhibition is < 20%.

How did the inhibition turn out when `O=c1cc(-c2ccccc2)oc2ccccc12` was run?
The inhibition was < 20%.

`O=c1cc(-c2ccc(O)c(O)c2)oc2cccc(O)c12` was tested. Which inhibition did it give?
The inhibition was < 20%.

How did the inhibition turn out when `O=c1c(O)c(-c2ccc(O)c(O)c2)oc2ccccc12` was run?
Its inhibition is 20%.

For `O=c1c(O)c(-c2ccc(O)cc2O)oc2cc(O)cc(O)c12`, which inhibition is on record?
The inhibition was < 20%.

Which inhibition does the source give for `O=c1cc(-c2ccc(O)cc2)oc2ccccc12` here?
Its inhibition is < 20%.

Which inhibition does the source give for `O=c1cc(-c2ccc(O)c(O)c2)oc2c(Cl)c(O)cc(O)c12` here?
Its inhibition is < 20%.

With `O=c1c(O)c(-c2ccc(O)c(O)c2)oc2c(O[C@@H]3O[C@H](CO)[C@@H](O)[C@H](O)[C@H]3O)c(O)cc(O)c12` as the compound, how does the inhibition read?
Its inhibition is < 20%.

How did the inhibition turn out when `O=c1cc(-c2ccc(O)c(O)c2)oc2cc(O)cc(O)c12` was run?
The inhibition was 22%.

For `O=c1cc(-c2ccc(O)cc2)oc2cc(O)ccc12`, which inhibition is on record?
Its inhibition is < 20%.

`O=c1cc(-c2ccc(O)c(O)c2)oc2cc(O)ccc12` was tested. Which inhibition did it give?
Its inhibition is < 20%.

For `COc1cc(-c2cc(=O)c3c(O)cc(O)cc3o2)ccc1O`, which inhibition is on record?
Its inhibition is < 20%.

How did the inhibition turn out when `COc1ccc(-c2oc3c(OCc4ccccc4)c(OCc4ccccc4)ccc3c(=O)c2O)cc1OC` was run?
Its inhibition is < 20%.

For `COc1ccc(-c2cc(=O)c3c(O)cc(O)cc3o2)cc1`, which inhibition is on record?
The inhibition was < 20%.

What follows are compounds tested against T2, Fructose-1,6-bisphosphatase 1 (Homo sapiens, UniProt P09467) (assay: Inhibition of human liver FBP1 incubated for 5 mins by fluorescence method).
T2 sequence (P09467 whole entry): T1 sequence (whole entry)

With `O=c1c(O)c(-c2ccc(O)cc2)oc2c(O)c(O)cc(O)c12` [HERBACETIN] as the compound, how does the pIC50 read?
The pIC50 was 5.06.

How did the pIC50 turn out when `O=c1cc(-c2ccccc2)oc2cc(O)c(O)c(O)c12` [BAICALEIN] was run?
The pIC50 was 4.54.

With `O=c1c(O)c(-c2ccc(O)c(O)c2)oc2c(O)c(O)cc(O)c12` [GOSSYPETIN] as the compound, how does the pIC50 read?
The pIC50 was 4.62.

With `Nc1ncnc2c1ncn2[C@@H]1O[C@H](COP(=O)(O)O)[C@@H](O)[C@H]1O` [ADENOSINE PHOSPHATE] as the compound, how does the pIC50 read?
Its pIC50 is 5.59.

With `O=c1cc(-c2ccc(O)cc2)oc2cc(O)c(O)c(O)c12` [SCUTELLAREIN] as the compound, how does the pIC50 read?
Its pIC50 is 4.42.
